Assay [1] can be described thus: Induction of anti-CD3 antibodies-stimulated human T cell activation at 1 uM assessed fold increase in IL-2 secretion measured by ELISA assay. Further: reference of the scale not given here. The format is functional, T cell line.
Assay [2] can be described thus: Induction of anti-CD3 antibodies-stimulated human T cell activation at 1 uM assessed fold increase in CD25 expression measured by ELISA assay. Further: reference of the scale not given here. Format: functional, T cell line.
Assay [3] in a line: Induction of anti-CD3/CD28 antibodies-stimulated human T cell activation at 0.3 uM assessed fold increase in CD25 expression measured by ELISA assay. Format: functional, T cell line. A general note: An ELISA detects its analyte on a solid surface through an enzyme-linked reagent.
Assay [4] in a line: Induction of anti-CD3/CD28 antibodies-stimulated human T cell activation at 1 uM assessed fold increase in IL-2 secretion measured by ELISA assay. The format is functional, T cell line.
Assay [5] is described as follows: Induction of anti-CD3/CD28 antibodies-stimulated human T cell activation at 1 uM assessed fold increase in CD25 expression measured by ELISA assay. Format: functional, T cell line.
Assay [6] concerns the target E3 ubiquitin-protein ligase CBL-B (Homo sapiens, UniProt Q13191). Briefly: Inhibition of N-terminal Avi-tagged human CBL-B (36 to 427 residues) incubated with 60 nM Src kinase for 1.5 hrs followed by incubation with fluorescently labeled UbcH5B-Ub for 1 hr and measured by TR-FRET assay. Format: single protein.
Assay [7] in a line: Induction of anti-CD3/CD28 antibodies-stimulated human T cell activation at 0.3 uM assessed fold increase in IL-2 secretion measured by ELISA assay. The format is functional, T cell line.

The results in this text go back to ChEMBL document CHEMBL5050844 (2019).

Sequence of E3 ubiquitin-protein ligase CBL-B (Q13191 whole entry, the tested form may be a part): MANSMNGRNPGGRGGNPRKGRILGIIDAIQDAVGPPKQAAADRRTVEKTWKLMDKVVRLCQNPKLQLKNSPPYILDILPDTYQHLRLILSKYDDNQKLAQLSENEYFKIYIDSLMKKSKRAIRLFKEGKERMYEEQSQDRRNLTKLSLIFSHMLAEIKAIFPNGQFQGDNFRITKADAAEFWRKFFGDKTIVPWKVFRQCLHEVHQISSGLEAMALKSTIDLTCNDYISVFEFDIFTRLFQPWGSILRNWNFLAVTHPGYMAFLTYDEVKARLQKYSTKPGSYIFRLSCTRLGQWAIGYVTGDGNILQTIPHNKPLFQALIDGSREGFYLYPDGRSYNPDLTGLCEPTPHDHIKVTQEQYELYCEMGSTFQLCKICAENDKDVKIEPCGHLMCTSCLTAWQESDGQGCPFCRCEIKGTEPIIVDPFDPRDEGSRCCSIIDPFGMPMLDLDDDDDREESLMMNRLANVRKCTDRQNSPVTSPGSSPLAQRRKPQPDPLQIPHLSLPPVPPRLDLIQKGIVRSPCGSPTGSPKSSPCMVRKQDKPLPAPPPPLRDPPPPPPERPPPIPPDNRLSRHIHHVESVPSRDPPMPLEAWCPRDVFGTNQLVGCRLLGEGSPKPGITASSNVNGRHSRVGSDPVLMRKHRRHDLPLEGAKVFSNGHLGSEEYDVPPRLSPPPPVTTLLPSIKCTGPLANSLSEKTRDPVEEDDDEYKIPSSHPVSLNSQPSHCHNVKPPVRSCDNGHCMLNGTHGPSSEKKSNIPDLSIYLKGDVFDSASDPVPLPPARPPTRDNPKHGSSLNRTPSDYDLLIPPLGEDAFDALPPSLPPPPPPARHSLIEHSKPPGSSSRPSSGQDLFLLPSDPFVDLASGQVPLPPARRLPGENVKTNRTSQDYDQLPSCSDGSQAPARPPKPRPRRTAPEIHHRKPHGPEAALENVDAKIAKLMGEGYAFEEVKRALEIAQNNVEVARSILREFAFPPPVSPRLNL

Broadly, the IC50 is the concentration that inhibits the measured activity by half. Read a high IC50 as weaker potency. In the case of `Cn1cnnc1CC1(c2cccc(N3Cc4c(cc(CN5CC(F)C5(C)C)cc4C(F)(F)F)C3=O)c2)COC1` (centres undefined), the “fold change (FC)” value in assay [1] was 0.101; in assay [2] it was “>=1.001”; in assay [3] it was 1.31; in assay [4], 5; in assay [5], 1.31; in assay [7], 2.51. In addition, in assay [6], the IC50 is below 100 nM.

For the compound `Cc1cc2c(c(C3CC3)n1)CN(c1cccc(C3(Cc4nncn4C)COC3)c1)C2=O`, the “fold change (FC)” value in assay [1] is recorded as 0.051; in assay [2], 0.801; in assay [3], 1.01; in assay [4] it was 2.51; in assay [5] it was 1.31; in assay [7], 1.01. In assay [6], this compound returned a 50% inhibitory concentration (IC50) below 100 nM.

As for `Cn1cnnc1CC1(c2cccc(N3Cc4c(cc(CN5Cc6cccnc6C5)cc4C(F)(F)F)C3=O)c2)COC1`, the “fold change (FC)” value was “>=0.201” in assay [1]; “>=1.001” in assay [2]; 1.31 in assay [3]; “>=7.5” in assay [4]; 1.31 in assay [5]; 2.51 in assay [7]. The compound also had a 50% inhibitory concentration (IC50) in assay [6] below 100 nM.

Consider `Cn1cnnc1CC1(c2cccc(N3Cc4c(cc(CN5Cc6ccccc6C5)cc4C(F)(F)F)C3=O)c2)COC1`, for which the “fold change (FC)” value in assay [1] is recorded as “>=0.201”; in assay [2], “>=1.001”; in assay [3], 1.31; in assay [4], “>=7.5”; in assay [5] it was 1.31; in assay [7], 5. In assay [6], this compound returned an IC50 below 100 nM.

As to `Cn1cnnc1CC1(c2cccc(N3Cc4c(cc(CN5CCC[C@@H](F)C5)cc4C(F)(F)F)C3=O)c2)COC1`, the “fold change (FC)” value is “>=0.201” in assay [1]; “>=1.001” in assay [2]; 1.31 in assay [3]; “>=7.5” in assay [4]; 1.31 in assay [5]; “>=7.5” in assay [7]. In assay [6], this compound displayed a half-inhibitory concentration (IC50) below 100 nM.

With `Cn1cnnc1CC1(c2cccc(NC(=O)c3cc(OC(F)F)cc(C4CC4)n3)c2)COC1`, the “fold change (FC)” value in assay [1] is listed as “>=0.201”; in assay [2], “>=1.001”; in assay [3], 1.01; in assay [4] it was “>=7.5”; in assay [5], 1.01; in assay [7] it was 5. In addition, the concentration for half-maximal inhibition (IC50) in assay [6] is below 100 nM.

In the case of `Cn1cnnc1CC1(c2cccc(N3Cc4c(cc(N5CCC(C(F)F)C5)cc4C(F)(F)F)C3=O)c2)COC1` (centres undefined), the “fold change (FC)” value is “<=0.05” in assay [1]; 0.601 in assay [2]; 1.01 in assay [3]; 2.51 in assay [4]; 1.01 in assay [5]; 1.01 in assay [7]. The half-inhibitory concentration (IC50) in assay [6] was below 100 nM.

In assay [6], `Cn1cnnc1CC1(c2cccc(N3Cc4c(cc(CN5CCc6cccnc6C5)cc4C(F)(F)F)C3=O)c2)COC1` displayed an IC50 below 100 nM.

`CC(c1cc2c(c(C(F)(F)F)c1)CN(c1cccc(C3(C(F)(F)c4nncn4C)COC3)c1)C2=O)N1CC[C@H](F)C1` (some centres undefined) came in with an IC50 in assay [6] below 100 nM.

Compound `C[C@H](Sc1nncn1C)c1cccc(NC(=O)c2cccc(N(C)C)c2)c1` displayed a 50% inhibitory concentration (IC50) in assay [6] above 10000 nM.

On to `Cn1cnnc1CC1(c2cccc(N3Cc4c(cc(CN5CCOC(C)(C)C5)cc4C(F)(F)F)C3=O)c2)COC1`, for which, in assay [6], the concentration for half-maximal inhibition (IC50) is below 100 nM.

In the case of `Cn1cnnc1CC1(c2cccc(N3Cc4c(cc(CN5CC[C@@H](F)[C@H](F)C5)cc4C(F)(F)F)C3=O)c2)COC1`, the concentration for half-maximal inhibition (IC50) in assay [6] was below 100 nM.

The compound `Cn1cnnc1CC1(c2cccc(N3Cc4c(cc(CN5CCc6cc(C#N)ccc6C5)cc4C(F)(F)F)C3=O)c2)COC1` yielded an IC50 in assay [6] below 100 nM.

`COc1ccc2c(c1)CN(Cc1cc3c(c(C(F)(F)F)c1)CN(c1cccc(C4(Cc5nncn5C)COC4)c1)C3=O)CC2` came in with an IC50 in assay [6] below 100 nM.

`Cn1cnnc1CC1(c2cccc(N3Cc4c(cc(CN5Cc6ccc(Cl)cc6C5)cc4C(F)(F)F)C3=O)c2)COC1` displayed an IC50 in assay [6] below 100 nM.

In assay [6], `COC[C@@H]1CN(Cc2cc3c(c(C(F)(F)F)c2)CN(c2cccc(C4(Cc5nncn5C)COC4)c2)C3=O)CCO1` came in with an IC50 below 100 nM.

`Cn1cnnc1CC1(c2cccc(N3Cc4c(cc(CN5CCO[C@H](C(F)(F)F)C5)cc4C(F)(F)F)C3=O)c2)COC1` returned a half-maximal inhibitory concentration (IC50) in assay [6] below 100 nM.

The compound `Cn1cnnc1CC1(c2cccc(N3Cc4c(cc(CN5CCC(F)CC5)cc4C4CC4)C3=O)c2)COC1` yielded a half-maximal inhibitory concentration (IC50) in assay [6] below 100 nM.

Compound `Cn1cnnc1CC1(c2cccc(N3Cc4c(cc(CN5CC[C@@H]6OCC[C@@H]6C5)cc4C(F)(F)F)C3=O)c2)COC1` (relative stereo) displayed an IC50 in assay [6] below 100 nM.

In the case of `Cn1cnnc1CC1(c2cccc(N3Cc4c(cc(CN5CC[C@@H](c6ccccc6)C5)cc4C(F)(F)F)C3=O)c2)COC1`, the IC50 in assay [6] was below 100 nM.

Consider `Cn1cnnc1CC1(c2cccc(N3Cc4c(cc(CN5CCO[C@H](CO)C5)cc4C(F)(F)F)C3=O)c2)COC1`, for which, in assay [6], the 50% inhibitory concentration (IC50) was below 100 nM.

In assay [6], `Cn1cnnc1CC1(c2cccc(N3Cc4c(cc(CN5CC[C@H](F)[C@@H](F)C5)cc4C(F)(F)F)C3=O)c2)COC1` showed an IC50 below 100 nM.

Consider `Cn1cnnc1CC1(c2cccc(N3Cc4c(cc(CN5CCOC(CCF)C5)cc4C(F)(F)F)C3=O)c2)COC1` (centres undefined), for which the IC50 in assay [6] is below 100 nM.

For the compound `Cn1cnnc1CC1(c2cccc(N3Cc4c(cc(CN5Cc6cccc(Cl)c6C5)cc4C(F)(F)F)C3=O)c2)COC1`, the 50% inhibitory concentration (IC50) in assay [6] is below 100 nM.

Take `Cn1cnnc1CC1(c2cccc(N3Cc4c(cc(CN5CCOC(C6CC6)C5)cc4C(F)(F)F)C3=O)c2)COC1` (centres undefined): the IC50 in assay [6] is below 100 nM.

On to `Cn1cnnc1CC1(c2cccc(N3Cc4c(cc(CC5CNCCC5=O)cc4C(F)(F)F)C3=O)c2)COC1` (centres undefined), for which the half-inhibitory concentration (IC50) in assay [6] was below 100 nM.

In assay [6], `Cn1cnnc1CC1(c2cccc(N3Cc4c(cc(C(O)C(F)(F)F)cc4C(F)(F)F)C3=O)c2)COC1` (centres undefined) had a 50% inhibitory concentration (IC50) below 100 nM.

As for `Cn1cnnc1CC1(c2cccc(N3Cc4c(cc(CN5CC[C@@H]6NCCO[C@@H]6C5)cc4C(F)(F)F)C3=O)c2)COC1` (relative stereo), the 50% inhibitory concentration (IC50) in assay [6] was below 100 nM.

In assay [6], `CN(c1cc2c(c(C(F)(F)F)c1)CN(c1cccc([C@@](C)(F)C(F)(F)c3nncn3C)c1)C2=O)[C@@H]1CNC[C@H]1F` had a half-inhibitory concentration (IC50) below 100 nM.

Regarding `Cn1cnnc1CC1(c2cccc(N3Cc4c(cc(C5CCCOC5)cc4C(F)(F)F)C3=O)c2)COC1` (centres undefined), the 50% inhibitory concentration (IC50) in assay [6] is below 100 nM.

On to `C[C@@H]1CN(Cc2cc3c(c(C(F)(F)F)c2)CN(c2cccc(-c4c(-c5nncn5C)cnn4C)c2)C3=O)C[C@H](C)O1`, for which the 50% inhibitory concentration (IC50) in assay [6] was below 100 nM.

Turning to `Cn1cnnc1CC1(c2cccc(N3Cc4c(cc(CN5CCN6C(=O)CCC6C5)cc4C(F)(F)F)C3=O)c2)COC1` (centres undefined), the IC50 in assay [6] was below 100 nM.

Regarding `Cn1cnnc1CC1(c2cccc(N3Cc4c(cc(CN5CCOC(CC(F)(F)F)C5)cc4C(F)(F)F)C3=O)c2)COC1` (centres undefined), in assay [6], the 50% inhibitory concentration (IC50) was below 100 nM.

`Cn1cnnc1CC1(c2cccc(N3Cc4c(cc(CN5CCOC(C(F)F)C5)cc4C(F)(F)F)C3=O)c2)COC1` (centres undefined) returned a 50% inhibitory concentration (IC50) in assay [6] below 100 nM.

Consider `C[C@H](Sc1nncn1C)c1cccc(NC(=O)c2cc(C(=O)N3CCC[C@H]3C)ccn2)c1`, for which, in assay [6], the IC50 is above 10000 nM.

`Cn1cnnc1CC1(c2cccc(N3Cc4c(cc(CN5Cc6cccc(C#N)c6C5)cc4C(F)(F)F)C3=O)c2)COC1`: the IC50 in assay [6] was below 100 nM.

In assay [6], `C[C@@H](Sc1nncn1C)c1ccc(F)c(N2Cc3c(cccc3C(F)(F)F)C2=O)c1` yielded an IC50 above 10000 nM.

The compound `CC(c1cc(C(=O)Nc2cccc(C3(Cc4nncn4C)COC3)c2)nc(C2CC2)n1)N1CCC2(CC2)C1` (single isomer, unassigned; 592b) had an IC50 in assay [6] below 100 nM.

In turn, `CC1=C(c2cc3c(c(C(F)(F)F)c2)CN(c2cccc(C4(Cc5nncn5C)COC4)c2)C3=O)CCO1` yielded an IC50 in assay [6] below 100 nM.

With `Cn1cnnc1CC1(c2cccc(N3Cc4c(cc(CN5CC[C@@H](F)[C@@H](F)C5)cc4C(F)(F)F)C3=O)c2)COC1` (relative stereo), in assay [6], the 50% inhibitory concentration (IC50) is below 100 nM.

On to `Cn1cnnc1CC1(c2cccc(N3Cc4c(cc(CN5CCc6ccncc6C5)cc4C(F)(F)F)C3=O)c2)COC1`, for which the IC50 in assay [6] is below 100 nM.

In turn, `Cn1cnnc1CC1(c2cccc(N3Cc4c(cc(CN5CCOC(C6CCC6)C5)cc4C(F)(F)F)C3=O)c2)COC1` (centres undefined) yielded an IC50 in assay [6] below 100 nM.

Turning to `Cc1nnnn1CC(C)c1cccc(NC(=O)c2cccc(C(F)(F)F)n2)c1` (centres undefined), in assay [6], the IC50 is above 10000 nM.

`Cn1cnnc1CC1(c2cccc(N3Cc4c(cc(CN5CCOC(CCO)C5)cc4C(F)(F)F)C3=O)c2)COC1` (centres undefined) had a 50% inhibitory concentration (IC50) in assay [6] below 100 nM.

As for `Cn1cnnc1CC1(c2cccc(N3Cc4c(cc(CN5CCOC6(CC6)C5)cc4C(F)(F)F)C3=O)c2)COC1`, the IC50 in assay [6] was below 100 nM.

Regarding `CC(C)C1CN(Cc2cc3c(c(C(F)(F)F)c2)CN(c2cccc(C4(Cc5nncn5C)COC4)c2)C3=O)CCO1` (centres undefined), the IC50 in assay [6] is below 100 nM.

As to `CC(c1cc2c(c(C(F)(F)F)c1)CN(c1cccc(C3(Cc4nncn4C)COC3)c1)C2=O)n1ccnc1` (centres undefined), the 50% inhibitory concentration (IC50) in assay [6] is below 100 nM.

`C[C@@H]1CN(Cc2cc3c(c(C(F)(F)F)c2)CN(c2cccc(-c4c(-c5nncn5C)cnn4C)c2)C3=O)CCO1`: the IC50 in assay [6] was below 100 nM.

Compound `Cc1cn(C)c(SC(C)c2ccnc(NC(=O)c3ccc4ccccc4n3)c2)n1` (centres undefined) had a 50% inhibitory concentration (IC50) in assay [6] above 10000 nM.

Compound `Cn1cnnc1CC1(c2cccc(N3Cc4c(cc(CN5CCC(F)(F)C(O)C5)cc4C(F)(F)F)C3=O)c2)COC1` (centres undefined) came in with an IC50 in assay [6] below 100 nM.

In turn, `CN(c1cc2c(c(C(F)(F)F)c1)CN(c1cccc([C@@](C)(F)C(F)(F)c3nncn3C)c1)C2=O)[C@H]1CNC[C@@H]1F` showed an IC50 in assay [6] below 100 nM.

As for `C[C@@H]1CN(Cc2cc3c(c(C(F)(F)F)c2)CN(c2cccc(C4(Cc5nncn5C)COC4)c2)C3=O)C[C@H](C)O1`, the IC50 in assay [6] is below 100 nM.
